These results are taken from article PMC2652632 (Biochemistry, 2008).

Data set [1] deals with T1, IDE-CF (Homo sapiens, UniProt P14735, C110L/C171S/C178A/C257V/C414L/C573N/C590S/C789S/C812A/C819A/C904S/C966N/C974A). Description: Specific activity of IDE-CF with substrate V. It is filed as biochemical. To be noted: 0.5 μM fluorogenic substrate V.
Data set [2] concerns the target T2, IDE-WT (Homo sapiens, UniProt P14735). Description: Specific activity of IDE-WT with substrate V. It counts as biochemical. To be noted: 0.5 μM fluorogenic substrate V.
For data set [3], the system named is IDE. The settings on record: ref 16 (b4: ref 16, 17); cited from earlier work.
The test system of a further data set is IDE-CF-A819C. As to the kind of experiment: Sensitivity of IDE-CF-A819C to NEM, GSNO and H2O2. To be noted: for sensitivity to GSNO / H2O2 relative to IDE-WT (in words): IDE-CF-A819C compared to IDE-WT; for NEM sensitivity (in words): IDE-CF-A819C. It counts as biochemical, human.
Data set [4] deals with T2, IDE-WT. Description: Sensitivity of IDE-WT to NEM, GSNO and H2O2. The settings on record: for inactivation of IDE by NEM / H2O2 / GSNO (in words): substrates mimicking both Aβ and bradykinin. It is filed as biochemical.
The next data set concerns IDE-CF-4. As to the kind of experiment: Sensitivity of IDE-CF-4 to NEM, GSNO and H2O2. It is filed as biochemical, human. The settings on record: for inhibition by GSNO / H2O2 (in words): IDE-CF-4, substrate V or FAβB.
Another data set concerns IDE-CF-123. As to the kind of experiment: Sensitivity of IDE-CF-123 to NEM, GSNO and H2O2. It counts as biochemical, human. To be noted: for inhibition by GSNO / H2O2 (in words): IDE-CF-123, substrate V or FAβB; for sensitivity to GSNO / H2O2 relative to IDE-WT (in words): IDE-CF-123 compared to IDE-WT.
Data set [5] concerns the target T1, IDE-CF. Description: Sensitivity of cysteine-free IDE-CF to NEM, GSNO and H2O2. It is filed as biochemical.
The test system of another data set is rat IDE. To be noted: cited from earlier work.
Data set [6] concerns IDE. The settings on record: cited from earlier work.
The subject of a further data set is IDE-WT-C819A. Description: NEM sensitivity of IDE-WT-C819A. It counts as biochemical, human. To be noted: 0–1 mM NEM, substrate V, compared to IDE-CF4 and IDE-WT.
The test system of another data set is IDE M2. Description: NEM sensitivity of IDE mutant M2. It is filed as biochemical, human. To be noted: IDE M2 (C789S/C904S/C966N), 0.2 and 1 mM NEM, 1 h, substrate V.
The subject of a further data set is IDE M5. Description: NEM sensitivity of IDE mutant M5. It counts as biochemical, human. The settings on record: IDE M5 (C789S/C819A/C904S/C966N), 0.2 and 1 mM NEM, 1 h, substrate V.
For a further data set, the system named is IDE-CF-A812C. Description: NEM sensitivity of IDE-CF-A812C. The settings on record: fully purified, 0.15, 0.6 and 2.5 mM NEM, 1 h, substrate V. It counts as biochemical, human.
In a further data set the test system is IDE M4. As to the kind of experiment: NEM sensitivity of IDE mutant M4. It counts as biochemical, human. To be noted: IDE M4 (C789S/C904S/C966N/C974A), 0.2 and 1 mM NEM, 1 h, substrate V.
The test system of the next data set is IDE M3. Description: NEM sensitivity of IDE mutant M3. It is filed as biochemical, human. The settings on record: IDE M3 (C812A/C819A/C904S/C966N), 0.2 and 1 mM NEM, 1 h, substrate V.
Another data set deals with 812C mutant of IDE. To be noted: single 812C mutant, only Ni-NTA purified; cited from earlier work.
A further data set concerns IDE M1. Description: NEM sensitivity of IDE mutant M1. To be noted: IDE M1 (C904S/C966N), 0.2 and 1 mM NEM, 1 h, substrate V. It counts as biochemical, human.
A further data set concerns NEP. The settings on record: cited from earlier work.
Data set [7] deals with T3, human IDE (IDE-CF) (Homo sapiens, UniProt P14735, C110L/C171S/C178A/C257V/C414L/C573N/C590S/C789S/C812A/C819A/C904S/C966N/C974A). Description: Mass spectrometry analysis of kinins degradation by IDE-CF. It is filed as biochemical. To be noted: for major cleavage site: 50 mM potassium phosphate pH 7.3, MALDI-TOF and MS-MS.
In data set [8] the target is T3, human IDE (IDE-CF). Description: Kinetic analysis of kinin degradation by IDE-CF. It counts as biochemical. The settings on record: for kcat for degradation by IDE: IDE-CF, competition with 0.5 μM substrate V, 50 mM potassium phosphate pH 7.3, 37 °C.
For a further data set, the system named is ACE. The settings on record: cited from earlier work.
In data set [9] the test system is IDE. The settings on record: insulin; literature value, reference not given; cited from earlier work.
The test system of data set [10] is IDE. Description: Degradation of insulin and short substrates by IDE. It is filed as biochemical. The settings on record: insulin 100 nM vs kinins 4–7 mM.

Entries after “also recorded” stand apart in the source; their conditions may differ.

T3 sequence (P14735 whole entry C110L/C171S/C178A/C257V/C414L/C573N/C590S/C789S/C812A/C819A/C904S/C966N/C974A): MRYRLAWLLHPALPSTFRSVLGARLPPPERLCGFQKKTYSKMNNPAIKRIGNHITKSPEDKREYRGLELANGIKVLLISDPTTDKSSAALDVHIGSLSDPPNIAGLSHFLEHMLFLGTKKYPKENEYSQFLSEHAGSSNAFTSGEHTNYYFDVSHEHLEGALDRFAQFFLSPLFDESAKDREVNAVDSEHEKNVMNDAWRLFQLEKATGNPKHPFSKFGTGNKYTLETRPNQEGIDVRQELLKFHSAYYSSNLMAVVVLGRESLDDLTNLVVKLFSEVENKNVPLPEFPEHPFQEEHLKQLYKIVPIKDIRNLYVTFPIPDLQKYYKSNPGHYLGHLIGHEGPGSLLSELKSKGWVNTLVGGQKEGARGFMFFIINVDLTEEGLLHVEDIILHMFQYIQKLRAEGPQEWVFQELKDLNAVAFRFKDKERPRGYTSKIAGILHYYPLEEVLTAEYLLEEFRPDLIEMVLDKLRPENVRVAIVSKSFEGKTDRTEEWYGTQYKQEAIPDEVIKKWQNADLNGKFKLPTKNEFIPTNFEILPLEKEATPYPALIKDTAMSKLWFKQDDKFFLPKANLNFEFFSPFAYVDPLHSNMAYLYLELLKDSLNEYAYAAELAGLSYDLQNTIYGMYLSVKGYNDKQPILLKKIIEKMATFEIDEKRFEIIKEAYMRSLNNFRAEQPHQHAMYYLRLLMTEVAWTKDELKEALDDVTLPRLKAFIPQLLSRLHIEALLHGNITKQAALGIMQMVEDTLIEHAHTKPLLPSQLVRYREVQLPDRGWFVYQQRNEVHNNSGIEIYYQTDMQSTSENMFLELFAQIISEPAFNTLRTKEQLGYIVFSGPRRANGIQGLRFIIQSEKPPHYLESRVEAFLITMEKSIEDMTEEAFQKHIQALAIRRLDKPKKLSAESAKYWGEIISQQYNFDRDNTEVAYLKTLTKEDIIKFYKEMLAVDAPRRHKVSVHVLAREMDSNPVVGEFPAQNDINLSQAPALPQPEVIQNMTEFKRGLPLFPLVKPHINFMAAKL
T1 sequence (P14735 whole entry C110L/C171S/C178A/C257V/C414L/C573N/C590S/C789S/C812A/C819A/C904S/C966N/C974A): as above
T2 sequence (P14735 whole entry): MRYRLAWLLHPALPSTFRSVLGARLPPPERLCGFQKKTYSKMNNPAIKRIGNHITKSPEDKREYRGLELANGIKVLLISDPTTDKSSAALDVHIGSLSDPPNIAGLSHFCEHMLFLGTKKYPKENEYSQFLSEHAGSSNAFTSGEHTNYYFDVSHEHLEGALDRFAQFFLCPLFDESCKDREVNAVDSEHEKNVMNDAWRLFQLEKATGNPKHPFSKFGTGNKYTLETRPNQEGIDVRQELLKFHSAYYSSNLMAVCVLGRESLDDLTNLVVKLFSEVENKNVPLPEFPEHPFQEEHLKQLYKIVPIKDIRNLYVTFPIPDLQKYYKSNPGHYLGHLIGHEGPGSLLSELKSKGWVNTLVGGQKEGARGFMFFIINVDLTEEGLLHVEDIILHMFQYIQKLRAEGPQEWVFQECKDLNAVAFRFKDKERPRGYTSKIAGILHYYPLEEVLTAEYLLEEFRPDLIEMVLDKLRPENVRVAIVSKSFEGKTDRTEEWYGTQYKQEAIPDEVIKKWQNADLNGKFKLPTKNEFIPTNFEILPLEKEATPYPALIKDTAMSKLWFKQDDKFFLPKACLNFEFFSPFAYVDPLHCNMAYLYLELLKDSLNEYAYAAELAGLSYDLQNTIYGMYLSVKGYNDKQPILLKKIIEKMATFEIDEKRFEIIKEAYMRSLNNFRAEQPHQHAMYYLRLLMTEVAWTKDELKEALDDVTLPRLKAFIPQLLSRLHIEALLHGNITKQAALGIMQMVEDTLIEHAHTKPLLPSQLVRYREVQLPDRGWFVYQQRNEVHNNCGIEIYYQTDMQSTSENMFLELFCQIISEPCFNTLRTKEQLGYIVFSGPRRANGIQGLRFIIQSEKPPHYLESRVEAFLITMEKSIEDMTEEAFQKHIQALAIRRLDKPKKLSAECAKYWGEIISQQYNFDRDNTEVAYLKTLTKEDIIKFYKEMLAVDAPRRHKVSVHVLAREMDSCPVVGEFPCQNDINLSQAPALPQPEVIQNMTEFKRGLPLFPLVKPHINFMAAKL

Regarding “7-methoxycoumarin-4-yl-acetyl-NPPGFSAFK-2,4-dinitrophenyl [substrate V]”, the specific activity on IDE-CF [1] came out at 4.5 ± 0.1 min⁻¹; at IDE-WT [2], 3.0 ± 0.4 min⁻¹.
As for `Nc1ncnc2c1ncn2[C@@H]1O[C@H](COP(=O)(O)OP(=O)(O)OP(=O)(O)O)[C@@H](O)[C@H]1O` [ATP], the “activation of IDE (in words)” value in the data set on IDE [3] is recorded as “can activate IDE”.
Turning to `N[C@@H](CCC(=O)N[C@@H](CSN=O)C(=O)NCC(=O)O)C(=O)O` [GSNO, S-nitroso-glutathione], the “sensitivity to GSNO / H2O2 relative to IDE-WT (in words)” value in the data set with IDE-CF-A819C and with IDE-CF-123 was “more sensitive” throughout. The “inactivation of IDE by NEM / H2O2 / GSNO (in words)” value at IDE-WT [4] is given as “potently inactivate the catalytic activity of IDE”. Also, the “inhibition by GSNO / H2O2 (in words)” value in the data set on IDE-CF-4 is recorded as “relatively resistant”; in the data set with IDE-CF-123 it was “inactivated”.
As to `OO` [H2O2, hydrogen peroxide], the “inhibition by GSNO / H2O2 / NEM (in words)” value against IDE-CF [5] (cysteine-free IDE-CF, substrate V or FAβB, 1 mM reagent) is given as “insensitive to the inhibition”. For the same compound, the “sensitivity to GSNO / H2O2 relative to IDE-WT (in words)” value with IDE-CF-A819C and with IDE-CF-123 was “more sensitive” in each case. In addition, the “inactivation of IDE by NEM / H2O2 / GSNO (in words)” value on IDE-WT [4] is “potently inactivate the catalytic activity of IDE”. In addition, the “inactivation of rat IDE (in words)” value in the data set on rat IDE was “inactivate rat IDE”. Also, the “inhibition by sulfhydryl-directed reactions (in words)” value with IDE [6] was “sensitive to inhibition”. The “inhibition by GSNO / H2O2 (in words)” value with IDE-CF-4 is reported as “relatively resistant”; in the data set on IDE-CF-123 it was “inactivated”.
Consider `CCN1C(=O)C=CC1=O` [NEM, N-ethyl-maleimide], for which the “NEM sensitivity (in words)” value at IDE-CF [5] (IDE-CF, 0.2–1 mM NEM, 1 h, substrate V) is “relatively resistant to the inactivation by NEM”; with IDE-CF-A819C (fully purified, 0.15, 0.6 and 2.5 mM NEM, 1 h, substrate V), “only IDE-CF-A819C is highly sensitive to the NEM inactivation”; in the data set on IDE-CF-A819C (partially purified (preliminary)), “sensitivity to NEM”; at IDE-WT [4] (IDE-WT, 0.2–1 mM NEM, 1 h, substrate V), “highly sensitive to inhibition by NEM”; in the data set with IDE-WT-C819A it was “less sensitive to NEM inactivation”; in the data set on IDE M2, “susceptibility to NEM”. Further, the “NEM sensitivity (in words)” value with IDE M5 was “partial resistance”; in the data set with IDE-CF-A812C it was “does not induce a similar inhibition effect as Cys 819”; in the data set on IDE-CF-4 (IDE-CF-4, 0.2 and 1 mM NEM, 1 h, substrate V, partially purified), “significantly reduced sensitivity”; in the data set with IDE M4, “susceptibility to NEM”; with IDE M3 it was “partial resistance”; with IDE-CF-123 (IDE-CF-123, 0.2 and 1 mM NEM, 1 h, substrate V, partially purified), “highly sensitive to NEM”. In the data set with IDE M1, the “NEM sensitivity (in words)” value is “susceptibility to NEM”. In addition, the loss of activity entry on IDE-WT [4] (IDE-WT, 1 mM NEM, 1 h, 25 °C, pH 7.2, 0.5 μM substrate V, control = buffer only) was “greater than 95%”. Also, the “inactivation of IDE by NEM / H2O2 / GSNO (in words)” value at IDE-WT [4] was “potently inactivate the catalytic activity of IDE”. Also, the mode of inhibition result in the data set with IDE [6] (S-alkylation of IDE by NEM) is “non-competitive”. Also, in the data set with IDE [6], the “inhibition by sulfhydryl-directed reactions (in words)” value is “sensitive to inhibition”. In addition, the “susceptibility to alkylation (in words)” value in the data set with 812C mutant of IDE was “susceptible to alkylation”. In addition, the “NEM sensitivity relative to IDE-WT (in words)” value in the data set on IDE-CF-123 (IDE-CF-123, 0.2 and 1 mM NEM, 1 h, substrate V) is listed as “more sensitive”.
Regarding “bradykinin: vasoactive nonapeptide hormone of the family of kinins, purchased from AnaSpec (RPPGFSPFR)”, the “activation of IDE (in words)” value with IDE [3] is given as “activator of IDE”. Besides, the “cleavage of C-terminal di-peptide” value in the data set with NEP and in the data set with ACE was “Same cleavage of the C-terminal di-peptide” each time. The major cleavage site entry in the data set with human IDE (IDE-CF) [7] (30 min incubation) was “at the Pro/Phe site; also recorded: between residues Pro^7 and Phe^8”. Also, the minor cleavage site result with human IDE (IDE-CF) [7] (30 min incubation, MALDI-TOF peak m/z 653.32, not confirmed by MS-MS) is “between residues Gly^4 and Phe^5”. Further, the “hydrolysis by IDE (in words)” value in the data set with human IDE (IDE-CF) [7] (purified recombinant human IDE, 30-minute incubation, MALDI-TOF) is “hydrolyzed after 30-minute incubation”. In the data set with human IDE (IDE-CF) [8], the “kcat for degradation by IDE” value was “around 2,000 sec^−1”. Further, in the data set with human IDE (IDE-CF) [8] (inferred from Km), the “affinity of IDE for kinins (in words)” value is “low affinity”.
On to insulin: large peptide substrate of IDE, for which the Km with IDE [9] is 0.1 µM. Moreover, the “Km of insulin relative to kinins” value with IDE [10] was “about five orders of magnitude lower”.
kallidin: on human IDE (IDE-CF) [7] (30 min incubation), the major cleavage site entry was “at the Pro/Phe site; also recorded: between Pro^8 and Phe^9”. Besides, at human IDE (IDE-CF) [8], the “kcat for degradation by IDE” value was “around 2,000 sec^−1”.

In general, Km refers to the substrate concentration at which the rate is half of its maximum.
